Test [1] has as its system mixed cortical cell cultures containing glial and neuronal cells. The test is described as follows: In vitro thiol experiment: intracellular cysteine levels. To be noted: 30 minutes; for intracellular cysteine concentration: raw concentration in collected samples. Format: cell-based, mice. Here is the method:
To further resolve by what process the inhibition of ^14C-cystine uptake is occurring intracellular cysteine levels were determined.
Mixed cortical cell cultures containing glial and neuronal cells were prepared from fetal (15-16 day gestation) mice as previously described. (Lobner D, “Comparison of the LDH and MTT assays for quantifying cell death: validity for neuronal apoptosis?,” J. Neurosci. Methods, 96(2): 147-152 (Mar. 15, 2000)). Dissociated cortical cells were plated on 24-well plates coated with poly-D-lysine and laminin in Eagles' Minimal Essential Medium (MEM, Earle's salts, supplied glutamine-free) supplemented with 5% heat-inactivated horse serum, 5% fetal bovine serum, 2 mM glutamine and glucose (total 21 mM). Cultures were maintained in humidified 5% CO2 incubators at 37° C. Mice were handled in accordance with a protocol approved by our institutional animal care committee and in compliance with the Public Health service Policy on Humane Care and Use of Laboratory Animals.
Mixed cortical cell cultures, 14 days in vitro (this allows for a confluent layer of astrocytes to form and the neurons to generate a complex network of axons and dendrites), were washed into bicarbonate buffered salt solution. After 1 hour, 3, 10, 30, 100 μM of Pro-4047 or Pro-4051 was added and the cells were incubated for 30 or 90 minutes, after which the cells were thoroughly washed and the collected in 250 μL of aqueous mobile phase (50 mM citric acid, 10 mM octanesulfonic acid, pH 2.8) was added, after 10 minutes at 37° C. the cells were scraped from the plates and transferred to 1.5 mL tubes for analysis.
Samples were then sonicated with a Fisher Scientific 60 Sonic Dismembrator. One fraction of this homogenate was analyzed with the Pierce BCA (bicinchoninic acid) method to determine protein concentration. The other fraction was filtered using 3 K molecular weight cutoff, polyethersulfone centrifugal protein filters, and analyzed for thiol content using HPLC (ALF-115 column, 150×1.0 mm, 3 μm C18 [Pro-2023 analysis utilized a Phenomenex Kinetex 2.6 μM, C18, 100 A, 150×2.1 mm and Pro-4047 analysis utilized a Phenomenex Kinetex X-B, C18, 100 A, 2.6 μm, 150×4.4 mm]; mobile phase: 50 mM citric acid, 10 mM octanesulfonic acid, 2% acetonitrile, pH 2.8, 50 μL/min flow rate [Pro-2023 analysis utilized a 100 μL/min flow rate and Pro-4047 analysis utilized 1% acetonitrile and 0.4 mL/min flow rate] with electrochemical detection (Decade II, Au working electrode, Flex Cell HyREF, 0.55V, Antec Leyden, Netherlands [Pro-4047 analysis utilized a Magic Diamond working electrode and 1.8V]).
When the intracellular thiol assay was initiated, all data was normalized to protein concentration. […] The data presented herein represents the raw cysteine concentrations in the collected samples. […] Pro-4006 at 10 μM increases intracellular cysteine concentration to 0.07 μM at 30 minutes (approximately 3.5 times that of the control; FIG. 11). […] Pro-4047 at 300 μM increases intracellular cysteine concentration to 0.74 μM at 90 minutes (approximately 4.9 times that of the control; FIG. 13). […] Thus, based on the 3 in vitro experiments it is apparent that Pro-2023, Pro-4006, Pro-4011, Pro-4047, Pro-4051 and Pro-4051a behave as effective cysteine prodrugs.

For test [2], the target named is T1, System xc− (Homo sapiens, UniProt Q9UPY5).
T1 construct: in vitro culture system of human glial cells from brain astrocytoma (1321N1); endogenous in cells; host or cells: 1321N1 human astrocytoma cells
T1 sequence (Q9UPY5 1-501): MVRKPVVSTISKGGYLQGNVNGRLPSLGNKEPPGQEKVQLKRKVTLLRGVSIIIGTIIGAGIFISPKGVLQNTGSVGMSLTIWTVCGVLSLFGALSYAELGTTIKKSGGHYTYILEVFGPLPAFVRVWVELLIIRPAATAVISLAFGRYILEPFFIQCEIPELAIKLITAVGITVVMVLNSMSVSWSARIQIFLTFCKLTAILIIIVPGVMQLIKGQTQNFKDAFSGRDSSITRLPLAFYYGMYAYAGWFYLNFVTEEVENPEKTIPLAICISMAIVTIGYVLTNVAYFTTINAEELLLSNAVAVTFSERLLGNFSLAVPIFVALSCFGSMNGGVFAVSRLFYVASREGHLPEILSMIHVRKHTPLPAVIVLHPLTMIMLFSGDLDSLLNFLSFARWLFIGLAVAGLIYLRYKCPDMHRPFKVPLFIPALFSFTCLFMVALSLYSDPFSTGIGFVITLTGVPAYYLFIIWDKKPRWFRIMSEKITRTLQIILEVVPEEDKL
T1 sequence (P08195 1-529 partner): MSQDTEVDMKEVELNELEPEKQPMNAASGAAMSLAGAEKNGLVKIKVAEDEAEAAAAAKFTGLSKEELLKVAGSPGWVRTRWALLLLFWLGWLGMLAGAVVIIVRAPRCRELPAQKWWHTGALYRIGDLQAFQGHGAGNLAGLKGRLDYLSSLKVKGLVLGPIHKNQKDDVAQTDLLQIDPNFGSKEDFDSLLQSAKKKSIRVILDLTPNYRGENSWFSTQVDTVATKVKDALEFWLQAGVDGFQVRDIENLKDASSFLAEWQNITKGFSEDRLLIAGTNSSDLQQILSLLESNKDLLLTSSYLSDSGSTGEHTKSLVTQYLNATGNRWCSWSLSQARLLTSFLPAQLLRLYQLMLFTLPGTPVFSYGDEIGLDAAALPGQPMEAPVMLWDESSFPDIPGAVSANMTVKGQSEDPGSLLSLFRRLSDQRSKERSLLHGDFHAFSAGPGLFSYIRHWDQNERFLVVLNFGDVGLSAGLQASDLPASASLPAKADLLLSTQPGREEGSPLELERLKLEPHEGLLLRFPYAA
Nature of the test: 14C-cystine uptake in human glial cells from brain astrocytoma (1321N1). The test is classed as cell-based. The note with it: 1321N1 cells. The procedure: The goal of these experiments was to determine ^14C-cystine uptake.
The screening of compounds was performed using an in vitro culture system of human glial cells from brain astrocytoma (1321N1). Cells were plated on 24 well plates coated with poly-D-lysine and laminin and grown in a balanced salt solution supplemented with 5% heat inactivated horse serum, 5% fetal bovine serum, 2 mM glutamine and glucose (total 21 mM). Cultures were maintained in humidified 5% CO2 incubators at 37° C. for 3-4 days before experiments were performed, at this time the cultures has formed a single confluent layer. For experiments, cultures were washed 3 times into a Na-free HEPES and HCO3^− buffered balanced salt solution. After 1 hour, the test compounds are added. Following a three hour incubation, ^14C-cystine (0.025 mCi/mL) was then added for 20 minutes. Following the ^14C-cystine exposure, cultures were washed 3 times with ice cold HEPES buffered saline solution and dissolved in 250 μl sodium dodecyl sulfate (0.1%). An aliquot (200 μl) was removed and added to scintillation fluid for counting. Values were normalized to ^14C-cystine uptake in untreated controls on the same experimental plate.

The target of test [3] is T1, System xc−. The test is described as follows: 3H-glutamate release from human glial cells from brain astrocytoma (1321N1). The test is classed as cell-based. The note with it: 1321N1 cells. Here is the method: This assay also uses the cell culture system of human glial cells from brain astrocytoma (1321N1) described above. Initially, cells are washed with HBBSS, and ^3H-glutamate is added (PerkinElmer: 1 mCi/mL stock solution is diluted (30 μL+500 HBBSS) and 10 μL of diluted radiolabel is added to each well). Following a 1 hour incubation to load the cells with the labeled glutamate, the cells are washed again with HBBSS, and the drug is added. At 30, 90, and 180 minutes, 50 μL of extracellular media is sampled from each well and is measured using a Beckman LS 6500 scintillation counter.

A further test concerns Rats. The test is described as follows: Elevated-plus maze. The test is classed as in vivo. The note with it: 10 mg/kg PO. Here is the method:
Rats were tested in a standard elevated plus maze; testing occurred in a dimly illuminated room using only two lights mounted over the maze. Animals were allowed to habituate to the room for at least one hour prior to treatment. One hour prior to testing, rats received a compound of the present invention (0-30 mg/kg, P.O.). For testing, the rat was placed in the elevated plus maze for five minutes, alternating the starting position between facing an open arm and facing a closed arm. The session was recorded and an observer blind to treatment recorded the number of explorations, entries and time spent in the open arm. Explorations were defined as the rat placing two feet into an open arm without fully entering said arm. Entries were defined as the rat placing all four feet in an open arm. Time of entry in the open arm was recorded from the time the rat placed four feet in the open arm until two of the rats' feet entered the open square.

For `CC(=O)N[C@@H](CSC(C)(C)c1ccccc1)C(N)=O` [Pro-4006, (2R)-2-Acetamido-3-[(2-phenylpropan-2-yl)sulfanyl]propanamide], in test [1] (10 μM compound), the “intracellular cysteine, times that of the control” value (shortened to “intracellular cysteine, times that”) is reported as “approximately 3.5 times” and the intracellular cysteine concentration was determined as 0.07 µM. Moreover, the “decrease in 14C-cystine uptake” value at System xc− [2] (30 μM (most effective concentration), three hour incubation) is “approximately 45%”. Also, the “increase in 3H-glutamate release” value at System xc− [3] (30 μM, at 30 minutes) was determined as 35%.
For `O=C(SC[C@H]1C(=O)NCC(=O)N1Cc1ccccc1)c1ccccc1` [Pro-4011, (6R)-6-[(benzoylsulfanyl)methyl]-1-benzylpiperazine-2,5-dione], in test [1] (10 μM compound), the “intracellular cysteine, times that” value is listed as “approximately 1.16 times” and the intracellular cysteine concentration amounted to 0.138 µM. For the same compound, the “increase in 14C-cystine uptake” value at System xc− [2] (100 μM (most effective concentration), three hour incubation) is “approximately 75%”. Further, the “increase in 3H-glutamate release” value at System xc− [3] (100 μM, at 3 hours) turned out to be 75%.
Take `CC(=O)N[C@@H](CSC(=O)c1ccc(C)cc1)C(N)=O` [Pro-4051a, (2R)-2-acetamido-3-(4-methylbenzoylsulfanyl)propanamide]: the “increase of time on the open arms over control” value in the test with Rats was “not a significant increase over control”. The “time spent on the open arms” value with Rats (one hour prior to testing, five minute session) is “around 22 seconds”. In addition, in test [1] (100 μM compound), the “intracellular cysteine, times that” value is reported as “approximately 3 times” and the intracellular cysteine concentration worked out at 0.21 µM. Besides, the “inhibition of 14C-cystine uptake (in words)” value against System xc− [2] (3 hour incubation) is recorded as “did not produce a substantial inhibition”. The “increase in 3H-glutamate release” value at System xc− [3] (1000 μM, at 30 minutes) is “approximately 180%”.

The values are drawn from US10961187B2, “Substituted N-acetyl-L-cysteine derivatives and related compounds” (Promentis Pharmaceuticals, Inc., priority 2013, dated 2021).
